Test results reported in paper PMC12595434, “Development of retinoid nuclear receptor pathway antagonists through targeting aldehyde dehydrogenase 1A3” (iScience, 2025).

Biological target: hKCNQ1 (Homo sapiens, UniProt P51787)
Experiment: Off-target profiling panel
Type: cell-based
Conditions: read-out: Inhibition by MBE1 at 10 μM (%)

Compound: CCc1cnccc1C(=O)Nc1cc2c(cc1F)NC(=O)CC2 [MBE1, 3-ethyl-N-(7-fluoro-2-oxo-3,4-dihydro-1H-quinolin-6-yl)pyridine-4-carboxamide]
- inhibition at 10 µM: 11.9%
